Counter-ions that a name gives are not always drawn. Like-named read-outs stand apart in the source and are kept apart here.
Key:
Assay type in all cases: biochemical
[1] = target: T1, human JAK1 (a.a. 837-1142) (Homo sapiens, UniProt P23458); test: In vitro JAK kinase assay (HTRF, phosphorylation of a biotinylated peptide), JAK1; details: read-out: JAK1 IC50
T1 construct: human JAK1 (a.a. 837-1142); His tag (N); made in house; host or cells: insect cells (baculovirus)
Method in brief: (§1)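 Phosphorylation of a biotinylated peptide by the JAK kinase domain, detected by HTRF with Eu-Py20 and SA-APC. ATP was 90 μM for JAK1, 30 μM for JAK2 and 3 μM for JAK3. Reactions ran 1 h at room temperature and were stopped with EDTA, followed by 40 min antibody binding.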

[2] = target: T2, human JAK2 (a.a. 828-1132) (Homo sapiens, UniProt O60674); test: In vitro JAK kinase assay (HTRF, phosphorylation of a biotinylated peptide), JAK2
T2 construct: JAK2 (a.a. 828-1132); His tag (N); made in house; host or cells: insect cells (baculovirus)
T2 sequence (O60674 828-1132): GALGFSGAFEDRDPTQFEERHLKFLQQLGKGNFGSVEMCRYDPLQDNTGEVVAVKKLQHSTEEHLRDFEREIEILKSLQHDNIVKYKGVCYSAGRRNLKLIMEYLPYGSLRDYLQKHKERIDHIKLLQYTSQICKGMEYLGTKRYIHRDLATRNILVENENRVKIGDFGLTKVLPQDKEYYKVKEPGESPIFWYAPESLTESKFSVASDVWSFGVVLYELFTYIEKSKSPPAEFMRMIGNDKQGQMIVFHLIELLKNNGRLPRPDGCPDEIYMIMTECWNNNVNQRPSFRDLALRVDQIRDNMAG
Method in brief: as §1

[3] = target: T3, human JAK3 (a.a. 781-1124) (Homo sapiens, UniProt P52333); test: In vitro JAK kinase assay (HTRF, phosphorylation of a biotinylated peptide), JAK3
T3 construct: JAK3 (a.a. 781-1124); His tag (N); made in house; host or cells: insect cells (baculovirus)
T3 sequence (P52333 781-1124): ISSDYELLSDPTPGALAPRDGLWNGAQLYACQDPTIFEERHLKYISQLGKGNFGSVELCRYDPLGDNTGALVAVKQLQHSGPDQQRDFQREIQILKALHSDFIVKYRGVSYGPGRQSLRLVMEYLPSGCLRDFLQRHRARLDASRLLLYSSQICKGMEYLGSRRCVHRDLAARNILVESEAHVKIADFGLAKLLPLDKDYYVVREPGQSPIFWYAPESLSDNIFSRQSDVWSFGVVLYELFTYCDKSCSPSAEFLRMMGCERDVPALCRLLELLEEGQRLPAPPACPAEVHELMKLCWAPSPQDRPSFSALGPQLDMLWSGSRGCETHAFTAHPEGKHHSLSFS
Method in brief: as §1

TYK2 = TYK2 (Homo sapiens, UniProt P29597); test: TYK2 kinase inhibition (Table A1)
Sequence of TYK2 (P29597 whole entry): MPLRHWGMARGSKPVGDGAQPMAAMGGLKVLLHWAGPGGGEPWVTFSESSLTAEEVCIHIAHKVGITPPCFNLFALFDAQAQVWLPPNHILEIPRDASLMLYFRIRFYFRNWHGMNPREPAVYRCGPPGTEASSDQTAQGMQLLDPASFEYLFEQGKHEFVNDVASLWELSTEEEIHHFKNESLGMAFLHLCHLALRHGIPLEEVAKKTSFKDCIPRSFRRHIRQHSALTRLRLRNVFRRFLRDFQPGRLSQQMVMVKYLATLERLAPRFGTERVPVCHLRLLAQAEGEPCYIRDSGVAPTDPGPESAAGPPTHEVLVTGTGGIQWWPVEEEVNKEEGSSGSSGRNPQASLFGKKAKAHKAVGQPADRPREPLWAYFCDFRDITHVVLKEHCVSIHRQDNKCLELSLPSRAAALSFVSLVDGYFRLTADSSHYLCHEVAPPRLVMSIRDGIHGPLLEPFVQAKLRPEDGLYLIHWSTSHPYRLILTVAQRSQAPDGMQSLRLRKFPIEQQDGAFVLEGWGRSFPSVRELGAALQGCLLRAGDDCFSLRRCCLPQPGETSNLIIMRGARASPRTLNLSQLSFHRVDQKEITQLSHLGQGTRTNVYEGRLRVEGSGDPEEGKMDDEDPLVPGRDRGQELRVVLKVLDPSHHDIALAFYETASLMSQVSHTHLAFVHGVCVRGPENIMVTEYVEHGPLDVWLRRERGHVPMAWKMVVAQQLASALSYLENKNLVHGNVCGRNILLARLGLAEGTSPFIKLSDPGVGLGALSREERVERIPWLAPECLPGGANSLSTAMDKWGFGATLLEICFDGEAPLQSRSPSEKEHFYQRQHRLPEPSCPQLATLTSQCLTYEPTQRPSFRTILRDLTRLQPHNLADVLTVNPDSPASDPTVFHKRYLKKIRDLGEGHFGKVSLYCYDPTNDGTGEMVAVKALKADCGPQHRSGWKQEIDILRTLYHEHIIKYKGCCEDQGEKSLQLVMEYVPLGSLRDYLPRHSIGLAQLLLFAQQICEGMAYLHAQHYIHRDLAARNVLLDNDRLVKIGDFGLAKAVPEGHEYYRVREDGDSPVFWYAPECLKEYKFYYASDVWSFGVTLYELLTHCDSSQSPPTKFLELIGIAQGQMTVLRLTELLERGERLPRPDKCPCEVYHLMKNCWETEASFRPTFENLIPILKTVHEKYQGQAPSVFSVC

[4] = target: T4, Recombinant Human Anaplastic Lymphoma Kinase (Homo sapiens, UniProt Q9UM73); test: ALK HTRF kinase assay
T4 construct: purchased Invitrogen, Carlsbad, Calif
T4 sequence (Q9UM73 19-1620): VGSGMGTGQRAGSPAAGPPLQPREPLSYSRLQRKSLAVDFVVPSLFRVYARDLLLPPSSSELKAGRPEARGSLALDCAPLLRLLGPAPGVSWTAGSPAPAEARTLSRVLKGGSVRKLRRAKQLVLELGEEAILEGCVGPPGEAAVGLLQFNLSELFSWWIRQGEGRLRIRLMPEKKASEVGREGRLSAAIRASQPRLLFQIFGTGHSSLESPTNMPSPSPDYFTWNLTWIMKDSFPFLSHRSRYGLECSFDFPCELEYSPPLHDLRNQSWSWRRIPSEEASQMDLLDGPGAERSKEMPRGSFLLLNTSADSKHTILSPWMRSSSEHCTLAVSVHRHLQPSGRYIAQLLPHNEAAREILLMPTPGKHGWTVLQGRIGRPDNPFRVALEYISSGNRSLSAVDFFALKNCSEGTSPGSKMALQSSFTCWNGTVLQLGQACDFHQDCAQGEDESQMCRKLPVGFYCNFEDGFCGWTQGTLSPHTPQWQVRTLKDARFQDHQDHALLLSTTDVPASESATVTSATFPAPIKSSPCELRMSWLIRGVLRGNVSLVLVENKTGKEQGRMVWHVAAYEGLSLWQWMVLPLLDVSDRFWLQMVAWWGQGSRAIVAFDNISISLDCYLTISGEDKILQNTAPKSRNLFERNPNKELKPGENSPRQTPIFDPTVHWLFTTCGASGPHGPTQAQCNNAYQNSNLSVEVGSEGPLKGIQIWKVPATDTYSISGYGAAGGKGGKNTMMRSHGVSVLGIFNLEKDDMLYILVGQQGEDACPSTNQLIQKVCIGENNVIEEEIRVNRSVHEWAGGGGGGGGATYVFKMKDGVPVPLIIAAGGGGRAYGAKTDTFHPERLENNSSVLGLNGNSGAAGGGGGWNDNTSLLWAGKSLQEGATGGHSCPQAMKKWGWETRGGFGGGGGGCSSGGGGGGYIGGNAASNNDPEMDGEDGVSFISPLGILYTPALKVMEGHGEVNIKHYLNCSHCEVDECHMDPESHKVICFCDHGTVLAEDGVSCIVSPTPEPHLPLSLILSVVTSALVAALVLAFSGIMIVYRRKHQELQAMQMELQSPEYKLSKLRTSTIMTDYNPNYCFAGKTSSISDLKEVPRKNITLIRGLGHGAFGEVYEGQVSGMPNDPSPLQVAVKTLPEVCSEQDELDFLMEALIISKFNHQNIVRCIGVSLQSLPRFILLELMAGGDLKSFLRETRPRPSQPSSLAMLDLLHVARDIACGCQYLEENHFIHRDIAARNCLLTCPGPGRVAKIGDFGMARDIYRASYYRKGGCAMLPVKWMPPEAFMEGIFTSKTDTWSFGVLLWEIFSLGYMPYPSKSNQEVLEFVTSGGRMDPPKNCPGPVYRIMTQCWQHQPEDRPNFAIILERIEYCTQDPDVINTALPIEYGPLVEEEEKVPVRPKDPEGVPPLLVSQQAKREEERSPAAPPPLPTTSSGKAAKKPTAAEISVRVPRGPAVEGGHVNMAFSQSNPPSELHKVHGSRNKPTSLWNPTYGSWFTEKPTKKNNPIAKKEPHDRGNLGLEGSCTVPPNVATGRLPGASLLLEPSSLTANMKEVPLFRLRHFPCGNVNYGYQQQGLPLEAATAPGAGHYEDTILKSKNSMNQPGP
Method in brief: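 Compounds were incubated with recombinant human ALK and a biotin-tagged peptide substrate. Product was captured with streptavidin-APC and probed with a europium anti-phosphotyrosine antibody, and plates were read for time-resolved fluorescence. Dose-response data were fitted to derive IC50.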

[5] = compound at a concentration of 500 nM or 1 mM (not specified), cells shown as percentage
[6] = percentage inhibition of the example compound at a concentration of 500 nM or 1 mM (not specified which)
[7] = Table B1, cells without percent sign
[8] = method AA1 (90 μM ATP) or AA2 (1000 μM ATP), not stated per value
[9] = method AA1 (30 μM ATP) or AA2 (1000 μM ATP), not stated per value
[10] = method AA1 (3 μM ATP) or AA2 (1000 μM ATP), not stated per value
[11] = compound at 500 nM or 1 mM, 90 μM ATP

T1 sequence (P23458 849-1154): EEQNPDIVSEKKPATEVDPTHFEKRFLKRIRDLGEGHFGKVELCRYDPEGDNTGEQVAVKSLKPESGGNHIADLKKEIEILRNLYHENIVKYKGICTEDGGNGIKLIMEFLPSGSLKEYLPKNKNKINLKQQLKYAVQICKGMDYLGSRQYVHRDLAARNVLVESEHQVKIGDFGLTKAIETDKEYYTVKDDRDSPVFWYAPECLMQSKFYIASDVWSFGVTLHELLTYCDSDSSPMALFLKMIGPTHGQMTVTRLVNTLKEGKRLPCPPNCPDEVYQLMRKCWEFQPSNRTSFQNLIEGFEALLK

Row | SMILES | IC50 ([1]; Table B1) [nM] | IC50 ([2]; Table B1) [nM] | IC50 ([3]; Table B1) [nM] | IC50 (TYK2; Table B1) [nM] | IC50 [1, 8] [nM] | IC50 [2, 9] [nM] | IC50 [3, 10] [nM] | IC50 (TYK2) [nM] | ALK % of inhibition at a concentration of 500 nM or 1 mM [4, 11] [%] | further results
1 | O=C(Nc1ccc2cc1CCc1cccc(c1)Nc1ncc(Cl)c(n1)N2)Nc1c(Cl)cccc1Cl [Example B113, N-[6-Chloro-2,4,8,22-tetraazatetracyclo[14.3.1.1(3,7).1(9,13)]docosa-1(20), 3(22),4,6,9(21),10,12,16,18-nonaen-12-yl]-N′-(2,6-dichlorophenyl)urea trifluoroacetate] | 4.7 | 7.4 | 48 | 17 |  |  |  |  |  | ALK % of inhibition at a concentration of 500 nM or 1 mM [4, 5]: 9.5%
2 | CNCc1ccc2cc1CCc1cncc(c1)Nc1ncc(Cl)c(n1)N2 [Example B334, 1-[6-Chloro-2,4,8,18,22-pentaazatetracyclo[14.3.1.1(3,7).1(9,13)]docosa-1(20),3(22),4,6,9(21),10,12,16,18-nonaen-12-yl]-N-methylmethanamine trihydrochloride] | 44 | 199 | > 200 | > 200 |  |  |  |  |  | ALK % of inhibition at a concentration of 500 nM or 1 mM [4, 6]: 72%
3 | Clc1cnc2nc1Nc1ccc(Nc3nc4cccnc4o3)c(c1)CCc1cccc(c1)N2 [Example B333, 6-Chloro-N-[1,3]oxazolo[5,4-b]pyridin-2-yl-2,4,8,22-tetraazatetracyclo[14.3.1.1(3,7).1(9,13)]docosa-1(20),3(22),4,6,9(21),10,12,16,18-nonaen-12-amine tris(trifluoroacetate)] | 6.8 | 15 | 1 | 1.2 |  |  |  |  |  | ALK % of inhibition at a concentration of 500 nM or 1 mM [4, 6]: 55%
4 | O=C(Nc1ccc2cc1CCc1cccc(c1)Nc1ncc(Cl)c(n1)N2)c1ccc(Cl)nc1 [Example B69, 6-Chloro-N-[6-chloro-2,4,8,22-tetraazatetracyclo[14.3.1.1(3,7).1(9,13)]docosa-1(20),3(22),4,6,9(21),10,12,16,18-nonaen-12-yl]nicotinamide bis(trifluoroacetate)] | 0.45 | 0.6 | 3.6 | 2.3 |  |  |  |  |  | ALK % of inhibition at a concentration of 500 nM or 1 mM [4, 5]: 68%
5 | O=C(Nc1ccc2cc1CCc1cccc(c1)Nc1ncc(Cl)c(n1)N2)c1cccnc1 [Example B30, N-[6-Chloro-2,4,8,22-tetraazatetracyclo[14.3.1.1(3,7).1(9,13)]docosa-1(20), 3(22),4,6,9(21),10,12,16,18-nonaen-12-yl]nicotinamide bis(trifluoroacetate)] | 0.87 | 0.78 | 2.9 | 2.5 |  |  |  |  |  | IC50 [4, 7]: 260 nM
6 | Cn1ccc(S(=O)(=O)NCCNC(=O)Nc2ccc3cc2CCc2cccc(c2)Nc2ncc(Cl)c(n2)N3)n1 [Example B332, N-{2-[({[6-chloro-2,4,8,22-tetraazatetracyclo[14.3.1.1(3,7).1(9,13)]docosa-1(20),3(22),4,6,9(21),10,12,16,18-nonaen-12-yl]amino}carbonyl)amino]ethyl}-1-methyl-1H-pyrazole-3-sulfonamide trifluoroacetate] | 3 | 3.4 | 26 | 8.2 |  |  |  |  |  | ALK % of inhibition at a concentration of 500 nM or 1 mM [4, 6]: 23%
7 | O=C(CC1CCN(C(=O)c2ccc(F)cc2F)CC1)Nc1ccc2cc1CCc1cccc(c1)Nc1ncc(Cl)c(n1)N2 [Example A204, N-[6-Chloro-2,4,8,22-tetraazatetracyclo[14.3.1.1(3,7).1(9,13)]docosa-1(20),3(22),4,6,9(21),10,12,16,18-nonaen-12-yl]-2-[1-(2,4-difluorobenzoyl)piperidin-4-yl]acetamide trifluoroacetate] |  |  |  |  | 20 | 100 | > 200 | > 200 | 28 | 
8 | O=C(CC1CCN(C(=O)Nc2ccccc2F)CC1)Nc1ccc2cc1CCc1cncc(c1)Nc1ncc(Cl)c(n1)N2 [Example A146, 4-(2-{[6-Chloro-2,4,8,18,22-pentaazatetracyclo[14.3.1.1(3,7).1(9,13)]docosa-1(20),3(22),4,6,9(21),10,12,16,18-nonaen-12-yl]amino}-2-oxoethyl)-N-(2-fluorophenyl)piperidine-1-carboxamide bis(trifluoroacetate)] |  |  |  |  | 0.9 | 3.6 | > 100 | 7.1 | 34 | 
9 | O=C(Nc1ccc2cc1CCc1cccc(c1)Nc1ncc(Cl)c(n1)N2)NC1CC1 [Example B240, N-[6-Chloro-2,4,8,22-tetraazatetracyclo[14.3.1.1(3,7).1(9,13)]docosa-1(20),3(22),4,6,9(21),10,12,16,18-nonaen-12-yl]-N′-cyclopropylurea trifluoroacetate] | 1.5 | 0.74 | 10 | 4 |  |  |  |  |  | ALK % of inhibition at a concentration of 500 nM or 1 mM [4, 5]: 15%
10 | O=C(Nc1ccc2cc1CCc1cncc(c1)Nc1ncc(Cl)c(n1)N2)N1CCN(c2ccc(C(F)(F)F)cn2)CC1 [Example B301, N-[6-Chloro-2,4,8,18,22-pentaazatetracyclo[14.3.1.1(3,7).1(9,13)]docosa-1(20),3(22),4,6,9(21),10,12,16,18-nonaen-12-yl]-4-[5-(trifluoromethyl)pyridin-2-yl]piperazine-1-carboxamide tris(trifluoroacetate)] | 35 | > 400 | > 400 | 75 |  |  |  |  |  | ALK % of inhibition at a concentration of 500 nM or 1 mM [4, 5]: 58%
11 | O=C(CC1CCN(c2ccncc2F)CC1)Nc1ccc2cc1CCc1cncc(c1)Nc1ncc(Cl)c(n1)N2 [Example A243, N-[6-Chloro-2,4,8,18,22-pentaazatetracyclo[14.3.1.1(3,7).1(9,13)]docosa-1(20),3(22),4,6,9(21),10,12,16,18-nonaen-12-yl]-2-[1-(3-fluoropyridin-4-yl)piperidin-4-yl]acetamide tris(trifluoroacetate)] |  |  |  |  | 20 | 119 | > 400 | 235 | 38 | 
12 | COc1cccc(NC(=O)N2CCC(CC(=O)Nc3ccc4cc3CCc3cncc(c3)Nc3ncc(Cl)c(n3)N4)CC2)c1 [Example A153, 4-(2-{[6-chloro-2,4,8,18,22-pentaazatetracyclo[14.3.1.1(3,7).1(9,13)]docosa-1(20),3(22),4,6,9(21),10,12,16,18-nonaen-12-yl]amino}-2-oxoethyl)-N-(3-methoxyphenyl)piperidine-1-carboxamide bis(trifluoroacetate)] |  |  |  |  | 0.5 | 1.1 | > 100 | 5.7 | 52 | 
13 | COCC(=O)Nc1ccc2cc1CCc1cccc(c1)Nc1ncc(Cl)c(n1)N2 [Example B28, N-[6-Chloro-2,4,8,22-tetraazatetracyclo[14.3.1.1(3,7).1(9,13)]docosa-1(20), 3(22),4,6,9(21),10,12,16,18-nonaen-12-yl]-2-methoxyacetamide trifluoroacetate] | 8.2 | 4.1 | 10 | 20 |  |  |  |  |  | IC50 [4, 7]: 1800 nM
14 | O=C(CC1CCN(C(=O)c2cccnc2)CC1)Nc1ccc2cc1CCc1cccc(c1)Nc1ncc(Cl)c(n1)N2 [Example A184, N-[6-Chloro-2,4,8,22-tetraazatetracyclo[14.3.1.1(3,7).1(9,13)]docosa-1(20),3(22),4,6,9(21),10,12,16,18-nonaen-12-yl]-2-[1-(pyridin-3-ylcarbonyl)piperidin-4-yl]acetamide bis(trifluoroacetate)] |  |  |  |  | 43 | 79 | > 200 | > 200 | 29 | 
15 | O=C(Nc1ccc2cc1CCc1cccc(c1)Nc1ncc(Cl)c(n1)N2)c1ccsc1 [Example B62, N-[6-Chloro-2,4,8,22-tetraazatetracyclo[14.3.1.1(3,7).1(9,13)]docosa-1(20), 3(22),4,6,9(21),10,12,16,18-nonaen-12-yl]thiophene-3-carboxamide trifluoroacetate] | 1.8 | 1.9 | 4.8 | 2.7 |  |  |  |  |  | IC50 [4, 7]: 210 nM
16 | Clc1cnc2nc1Nc1cccc(c1)CCSc1cccc(c1)N2 [Example D19, 6-Chloro-16-thia-2,4,8,23-tetraazatetracyclo[15.3.1.1(3,7).1(9,13)]tricosa-1(21),3(23),4,6,9(22),10,12,17,19-nonaene hydrochloride] |  |  |  |  |  |  |  |  |  | IC50 ([1]; Table D1): 150 nM; IC50 ([2]; Table D1): 16 nM; IC50 ([3]; Table D1): 39 nM; IC50 (TYK2; Table D1): 149 nM; IC50 ([4]; Table D1, 90 μM ATP): 562 nM

From US8871753B2, “Macrocyclic compounds and their use as kinase inhibitors” (Incyte Corporation, priority 2008, dated 2014)
